Reference: ChEMBL document CHEMBL1125857, “Synthesis of substrate-based inhibitors of HMG CoA reductase (II)” (Bioorg Med Chem Lett, 1991)
pIC50: −log10 of the molar value.

Molecular target: T1, 3-hydroxy-3-methylglutaryl-coenzyme A reductase (Rattus norvegicus, UniProt P51639)
T1 sequence (P51639 whole entry): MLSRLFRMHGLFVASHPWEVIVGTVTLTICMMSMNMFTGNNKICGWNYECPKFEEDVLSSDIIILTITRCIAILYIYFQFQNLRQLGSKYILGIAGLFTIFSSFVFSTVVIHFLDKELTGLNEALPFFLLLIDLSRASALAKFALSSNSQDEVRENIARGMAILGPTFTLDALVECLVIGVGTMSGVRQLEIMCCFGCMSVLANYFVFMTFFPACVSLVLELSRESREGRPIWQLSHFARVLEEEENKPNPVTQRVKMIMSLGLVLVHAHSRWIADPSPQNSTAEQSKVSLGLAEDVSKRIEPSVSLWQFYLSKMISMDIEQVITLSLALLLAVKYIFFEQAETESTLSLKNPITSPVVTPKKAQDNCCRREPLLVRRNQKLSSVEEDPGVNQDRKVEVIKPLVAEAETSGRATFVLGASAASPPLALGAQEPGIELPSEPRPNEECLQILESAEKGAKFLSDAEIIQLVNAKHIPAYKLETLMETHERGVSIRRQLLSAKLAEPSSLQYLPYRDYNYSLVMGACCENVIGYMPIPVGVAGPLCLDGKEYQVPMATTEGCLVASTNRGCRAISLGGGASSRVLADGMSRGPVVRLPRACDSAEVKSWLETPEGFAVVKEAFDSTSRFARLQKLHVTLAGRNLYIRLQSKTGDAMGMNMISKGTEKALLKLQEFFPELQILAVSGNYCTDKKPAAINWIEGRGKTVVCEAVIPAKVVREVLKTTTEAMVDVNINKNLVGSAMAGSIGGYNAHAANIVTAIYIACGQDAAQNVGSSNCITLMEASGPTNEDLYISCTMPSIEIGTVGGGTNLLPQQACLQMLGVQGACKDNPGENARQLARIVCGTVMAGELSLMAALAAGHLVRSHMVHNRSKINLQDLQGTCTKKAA
Experiment: Compound was tested for inhibitory activity against rat hepatic microsomal HMG-CoA reductase; lacked significant inhibitory activity
Conditions: read-out: I50

CC(C)[C@@H](O)C(=O)NCCC(=O)NCCNC(=O)C[C@@](C)(O)CC(=O)O
pIC50: < 3.00

CC(C)[C@@H](O)C(=O)NCCC(=O)NCCNC(=O)C[C@@H](O)CC(=O)O
pIC50: < 3.00

CC(C)[C@@H](O)C(=O)NCCC(=O)NCCNCC(O)CC(O)CC(=O)O (stereo partly drawn)
pIC50: < 3.00
